The values that follow come from ChEMBL document CHEMBL1131037, “Structure-based design, synthesis, and biological evaluation of irreversible human rhinovirus 3C protease inhibitors. 2. Peptide structure-activity studies” (J Med Chem, 1998).

The subject of assay [1] is rhinovirus B14. As to the kind of experiment: Antiviral activity against HRV-14 in cell culture. The settings on record: Rhinovirus B. The format is functional, organism-based.
In assay [2] the target is T1, Human rhinovirus A protease (Human rhinovirus sp.) (UniProt Q4U254).
T1 sequence (whole entry): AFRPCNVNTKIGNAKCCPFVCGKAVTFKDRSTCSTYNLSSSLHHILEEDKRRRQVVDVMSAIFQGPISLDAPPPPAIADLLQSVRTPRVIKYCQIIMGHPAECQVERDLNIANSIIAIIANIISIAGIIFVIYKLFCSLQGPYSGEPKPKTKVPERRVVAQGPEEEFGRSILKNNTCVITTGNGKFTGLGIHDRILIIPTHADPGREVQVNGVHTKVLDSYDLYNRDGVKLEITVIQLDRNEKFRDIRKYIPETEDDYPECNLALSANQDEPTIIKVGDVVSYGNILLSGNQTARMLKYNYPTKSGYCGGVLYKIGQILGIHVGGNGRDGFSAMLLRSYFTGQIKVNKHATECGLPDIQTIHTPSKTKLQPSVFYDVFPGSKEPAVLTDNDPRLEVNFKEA
As to the kind of experiment: (§1) Binding affinity on human Rhinovirus 3C protease (rhinovirus serotype 2).

Assay [3] concerns rhinovirus B14. Kind of assay: Cytotoxic activity against HRV-14 in cell culture. The format is functional, rhinovirus 14. The settings on record: Rhinovirus B.
A further assay has as its system HeLa. Kind of assay: Compound was tested for antiviral activity against HRV-2 in cell culture. The settings on record: Homo sapiens. The format is functional, cell-based.
The target in assay [4] is T1, Human rhinovirus A protease (Human rhinovirus sp.). Kind of assay: Binding affinity on human Rhinovirus 3C protease (rhinovirus serotype 14).
Assay [5] has the same target. Kind of assay: Binding affinity on human Rhinovirus 3C protease (rhinovirus serotype 16).
For assay [6] the target is unchanged. The assay is described as §1. In kind it is functional.
The target is the same in assay [7]. As to the kind of experiment: Binding affinity on human Rhinovirus 3C protease (rhinovirus serotype 14); Slow.

Each structure is given as a SMILES string.

As to `CCOC(=O)/C=C/[C@H](CCC(N)=O)NC(=O)[C@H](Cc1ccc(F)cc1)NC(=O)[C@H](CC(C)C)NC(=O)OCc1ccccc1`, the EC50 was found to be 1.8 µM in the assay with rhinovirus B14 [1] and 5.6 µM in the assay on HeLa. Moreover, the K obs / 1 in assay [2] was determined as 2400 M⁻¹ s⁻¹; in assay [4], 46000 M⁻¹ s⁻¹; in assay [5] it was 9200 M⁻¹ s⁻¹. This compound also registered a CC50 in the assay with rhinovirus B14 [3] greater than 320 µM.

On to `CCOC(=O)/C=C/[C@H](CCC(N)=O)NC(=O)[C@H](Cc1ccc(C)cc1)NC(=O)[C@H](CC(C)C)NC(=O)OCc1ccccc1`, for which, in the assay with rhinovirus B14 [1], the EC50 turned out to be 0.18 µM. The K obs / 1 is 1400 M⁻¹ s⁻¹ in assay [2], 59400 M⁻¹ s⁻¹ in assay [4] and 5300 M⁻¹ s⁻¹ in assay [5]. In the assay with rhinovirus B14 [3], this compound showed a CC50 greater than 320 µM.

Compound `CCOC(=O)/C=C/[C@H](CCC(N)=O)NC(=O)[C@H](Cc1cccs1)NC(=O)[C@H](CC(C)C)NC(=O)OCc1ccccc1` displayed a half-maximal effective concentration (EC50) in the assay on rhinovirus B14 [1] of 0.56 µM. Moreover, the K obs / 1 in assay [2] worked out at 1800 M⁻¹ s⁻¹; in assay [4], 20000 M⁻¹ s⁻¹; in assay [5], 4500 M⁻¹ s⁻¹. Moreover, the CC50 in the assay on rhinovirus B14 [3] is greater than 100 µM.

On to `CCOC(=O)/C=C/[C@H](CCC(N)=O)NC(=O)[C@H](CC1CCCCC1)NC(=O)[C@H](CC(C)C)NC(=O)OCc1ccccc1`, for which the EC50 in the assay on rhinovirus B14 [1] was determined as 1.9 µM. The results for the K obs / 1 in assay [6], in assay [4] and in assay [5] were 700 M⁻¹ s⁻¹, 16300 M⁻¹ s⁻¹ and 3500 M⁻¹ s⁻¹, respectively. For the same compound, the CC50 with rhinovirus B14 [3] was greater than 320 µM.

As for `CCOC(=O)/C=C/[C@H](CCC(N)=O)NC(=O)[C@H](Cc1ccc(OC)cc1)NC(=O)[C@H](CC(C)C)NC(=O)OCc1ccccc1`, the EC50 with rhinovirus B14 [1] stood at 1.7 µM; in the assay on HeLa it was 14 µM. In addition, the K obs / 1 in assay [2] was determined as 1100 M⁻¹ s⁻¹; in assay [4], 29000 M⁻¹ s⁻¹; in assay [5], 3400 M⁻¹ s⁻¹. The compound also showed a CC50 in the assay on rhinovirus B14 [3] greater than 320 µM.

For `CCOC(=O)/C=C/[C@H](CCC(N)=O)NC(=O)CNC(=O)[C@H](CC(C)C)NC(=O)OCc1ccccc1`, the response with rhinovirus B14 [1] was half-maximal at 141 µM (EC50). Also, in assay [7], the “K obs / 1” value is listed as “Slow”. The compound further had a half-maximal cytotoxic concentration (CC50) with rhinovirus B14 [3] greater than 320 µM.

As to `CCOC(=O)/C=C/[C@H](CCC(N)=O)NC(=O)[C@H](Cc1ccccc1)NC(=O)[C@H](CC(C)C)NC(=O)SCC`, the EC50 in the assay on rhinovirus B14 [1] is 0.46 µM; with HeLa, 1 µM. Further, the K obs / 1 in assay [2] is 8900 M⁻¹ s⁻¹; in assay [4] it was 91300 M⁻¹ s⁻¹; in assay [5], 20000 M⁻¹ s⁻¹. Moreover, in the assay on rhinovirus B14 [3], the CC50 is greater than 320 µM.

`CCOC(=O)/C=C/[C@H](CCC(N)=O)NC(=O)[C@H](Cc1ccccc1)NC(=O)[C@H](CC(C)C)NC(=O)SCc1ccccc1`: the EC50 was determined as 0.27 µM in the assay on rhinovirus B14 [1] and 1.9 µM with HeLa. Also, the K obs / 1 in assay [2] is 28400 M⁻¹ s⁻¹; in assay [4] it was 280000 M⁻¹ s⁻¹; in assay [5], 75000 M⁻¹ s⁻¹. Also, the CC50 with rhinovirus B14 [3] came out at 320 µM.

`CCOC(=O)/C=C/[C@H](CCC(N)=O)NC(=O)[C@H](Cc1nccn1C)NC(=O)[C@H](CC(C)C)NC(=O)OCc1ccccc1` returned an EC50 in the assay on rhinovirus B14 [1] of 10 µM. Further, the CC50 in the assay on rhinovirus B14 [3] was greater than 320 µM. In addition, in assay [4], the K obs / 1 was 8900 M⁻¹ s⁻¹.

`CCOC(=O)/C=C/[C@H](CCC(N)=O)NC(=O)[C@H](Cc1ccccc1)NC(=O)[C@H](CC(C)C)NC(=O)[C@@H](NC(C)=O)[C@@H](C)O`: the EC50 with rhinovirus B14 [1] was greater than 100 µM. For the same compound, the CC50 in the assay with rhinovirus B14 [3] is greater than 100 µM. Besides, in assay [4], the K obs / 1 turned out to be 4600 M⁻¹ s⁻¹.

The compound `CCOC(=O)/C=C/[C@H](CCC(N)=O)NC(=O)[C@H](Cc1ccccc1)NC(=O)[C@H](CC(C)C)NC(=O)SC` came in with an EC50 in the assay with rhinovirus B14 [1] of 1.1 µM. The compound also displayed a CC50 with rhinovirus B14 [3] greater than 320 µM. The K obs / 1 in assay [4] was determined as 69800 M⁻¹ s⁻¹.

With `CCOC(=O)/C=C/[C@H](CCC(N)=O)NC(=O)[C@H](Cc1ccc(OP(=O)(O)O)cc1)NC(=O)[C@H](CC(C)C)NC(=O)OCc1ccccc1`, the EC50 in the assay on rhinovirus B14 [1] amounted to 14 µM. Moreover, the CC50 in the assay on rhinovirus B14 [3] is greater than 320 µM. In assay [4], this compound yielded a K obs / 1 of 1200 M⁻¹ s⁻¹.

Take `CCOC(=O)/C=C/[C@H](CCC(N)=O)NC(=O)[C@H](Cc1ccccc1)NC(=O)[C@@H](NC(=O)OCc1ccccc1)C(C)(C)CO`: the EC50 with rhinovirus B14 [1] is 1.3 µM. The compound also gave a cytotoxic concentration (CC50) with rhinovirus B14 [3] greater than 100 µM. The compound further registered a K obs / 1 in assay [4] of 40000 M⁻¹ s⁻¹.

Consider `CCOC(=O)/C=C/[C@H](CCC(N)=O)NC(=O)[C@H](Cc1ccc(CCO)cc1)NC(=O)[C@H](CC(C)C)NC(=O)OCc1ccccc1`, for which the concentration giving a half-maximal response (EC50) in the assay on rhinovirus B14 [1] came to 3.5 µM. Besides, the figures for the K obs / 1 in assay [2], in assay [4] and in assay [5] were 700 M⁻¹ s⁻¹, 43100 M⁻¹ s⁻¹ and 1300 M⁻¹ s⁻¹, respectively. Besides, the cytotoxic concentration (CC50) with rhinovirus B14 [3] is greater than 320 µM.

Regarding `CCOC(=O)/C=C/[C@H](CCC(N)=O)NC(=O)[C@H](Cc1ccccc1)NC(=O)[C@@H](NC(=O)OCc1ccccc1)[C@H](C)O`, a half-maximal effect in the assay on rhinovirus B14 [1] (EC50) was put at 1.8 µM. This compound also came in with a half-maximal cytotoxic concentration (CC50) with rhinovirus B14 [3] greater than 320 µM. Besides, the K obs / 1 in assay [4] stood at 38900 M⁻¹ s⁻¹.

Compound `CCOC(=O)/C=C/[C@H](CCC(N)=O)NC(=O)[C@H](Cc1ccccc1)NC(=O)[C@H](CC(=O)N(C)C)NC(=O)OCc1ccccc1` had an EC50 in the assay on rhinovirus B14 [1] of 5.9 µM. In the assay on rhinovirus B14 [3], this compound showed a cytotoxic concentration (CC50) greater than 320 µM. In assay [4], this compound gave a K obs / 1 of 22600 M⁻¹ s⁻¹.

`CCC[C@H](NC(=O)[C@H](CC(C)C)NC(=O)OCc1ccccc1)C(=O)N[C@H](/C=C/C(=O)OCC)CCC(N)=O` displayed an EC50 in the assay on rhinovirus B14 [1] of 5 µM. In addition, the K obs / 1 in assay [2] is 600 M⁻¹ s⁻¹; in assay [4] it was 2300 M⁻¹ s⁻¹; in assay [5], 1200 M⁻¹ s⁻¹. This compound also registered a CC50 with rhinovirus B14 [3] greater than 320 µM.
